Results: ChEMBL document CHEMBL1152944, “Design, synthesis and biological evaluation of novel triazole, urea and thiourea derivatives of quinoline against Mycobacterium tuberculosis” (Bioorg Med Chem, 2009)
≈ marks a conversion by molar mass, not a printed value.

Tests used:
[1] = system: Mycobacterium tuberculosis; experiment: Antimycobacterial activity against Mycobacterium tuberculosis H37Rv ATCC 27294 at 6.25 ug/mL by BACTEC 460 radiometric assay; assay type: functional
[2] = system: Mycobacterium tuberculosis; experiment: Antimycobacterial activity against Mycobacterium tuberculosis H37Rv ATCC 27294; assay type: functional
[3] = Cytotoxicity against mouse macrophage cells assessed as cell viability at 1 ug/100 ul after 72 hrs by MTT assay; assay type: cell-based; settings: read-out: Activity
[4] = Cytotoxicity against mouse macrophage cells assessed as cell viability at 10 ug/100 ul after 24 hrs by MTT assay; assay type: cell-based; settings: read-out: Activity
[5] = Cytotoxicity against mouse macrophage cells assessed as cell viability at 10 ug/100 ul after 72 hrs by MTT assay; assay type: cell-based; settings: read-out: Activity
[6] = Cytotoxicity against mouse macrophage cells assessed as cell viability at 1 ug/100 ul after 24 hrs by MTT assay; assay type: cell-based; settings: read-out: Activity

SMILES	inhibition at 6.25 µg/mL [1]	also measured
O=[N+]([O-])c1ccc2nc(Oc3ccc(F)cc3C(O)Cn3ccc(-c4ccc(C(F)(F)F)cc4)n3)c(Cc3ccccc3)cc2c1 (stereo not given)	6%	–
COc1cccc(-c2ccn(CC(O)c3cc(F)ccc3Oc3nc4ccc([N+](=O)[O-])cc4cc3Cc3ccccc3)n2)c1 (stereo not given)	7%	–
O=[N+]([O-])c1ccc2nc(Oc3ccc(F)cc3C(O)Cn3ccc(-c4cccc(Cl)c4)n3)c(Cc3ccccc3)cc2c1 (stereo not given)	0%	–
O=[N+]([O-])c1ccc2nc(Oc3ccc(F)cc3C(O)Cn3ccnc3)c(Cc3ccccc3)cc2c1 (stereo not given)	58%	–
CC(O)c1cc(F)ccc1Oc1nc2ccc(NC(=O)Nc3cccc([N+](=O)[O-])c3)cc2cc1Cc1ccccc1 (stereo not given)	98%	MIC [2]: 6.25 µg/mL (≈ 11.3 µM); viability at 72 h, 1 ug/100 ul [3]: 55%; viability at 24 h, 10 ug/100 ul [4]: 87%; viability at 72 h, 10 ug/100 ul [5]: 53%; viability at 24 h, 1 ug/100 ul [6]: 91%
CC(c1cc(F)ccc1Oc1nc2ccc(-n3cc(-c4ccccc4)nn3)cc2cc1Cc1ccccc1)n1ccnc1 (stereo not given)	96%	MIC [2]: 3.12 µg/mL (≈ 5.51 µM); viability at 72 h, 1 ug/100 ul [3]: 61%; viability at 24 h, 10 ug/100 ul [4]: 88%; viability at 72 h, 10 ug/100 ul [5]: 58%; viability at 24 h, 1 ug/100 ul [6]: 100%
CC(O)c1cc(F)ccc1Oc1nc2ccc(NC(=S)NCc3ccc(Cl)cc3)cc2cc1Cc1ccccc1 (stereo not given)	37%	–
O=[N+]([O-])c1ccc2nc(Oc3ccc(F)cc3C(O)CN3CCNCC3)c(Cc3ccccc3)cc2c1 (stereo not given)	20%	–
O=[N+]([O-])c1ccc2nc(Oc3ccc(F)cc3C(O)Cn3cccn3)c(Cc3ccccc3)cc2c1 (stereo not given)	53%	–
COc1ccc(NC(=O)Nc2ccc3nc(Oc4ccc(F)cc4C(C)O)c(Cc4ccccc4)cc3c2)cc1 (stereo not given)	25%	–
COc1ccccc1NC(=O)Nc1ccc2nc(Oc3ccc(F)cc3C(C)O)c(Cc3ccccc3)cc2c1 (stereo not given)	8%	–
CC(c1cc(F)ccc1Oc1nc2ccc(-n3cc(-c4ccccc4)nn3)cc2cc1Cc1ccccc1)N1CCN(c2ccccn2)CC1 (stereo not given)	29%	–
COc1cccc(NC(=S)Nc2ccc3nc(Oc4ccc(F)cc4C(C)O)c(Cc4ccccc4)cc3c2)c1 (stereo not given)	22%	–
O=[N+]([O-])c1ccc2nc(Oc3ccc(F)cc3C(O)CN3CCOCC3)c(Cc3ccccc3)cc2c1 (stereo not given)	29%	–
CC(c1cc(F)ccc1Oc1nc2ccc(-n3cc(-c4ccccc4)nn3)cc2cc1Cc1ccccc1)N1CCN(c2ccc(F)cc2)CC1 (stereo not given)	20%	–
COc1ccccc1NC(=S)Nc1ccc2nc(Oc3ccc(F)cc3C(C)O)c(Cc3ccccc3)cc2c1 (stereo not given)	14%	–
COc1cccc(NC(=O)Nc2ccc3nc(Oc4ccc(F)cc4C(C)O)c(Cc4ccccc4)cc3c2)c1 (stereo not given)	94%	MIC [2]: 3.12 µg/mL (≈ 5.81 µM); viability at 72 h, 1 ug/100 ul [3]: 100%; viability at 24 h, 10 ug/100 ul [4]: 79%; viability at 72 h, 10 ug/100 ul [5]: 63%; viability at 24 h, 1 ug/100 ul [6]: 100%
CC(c1cc(F)ccc1Oc1nc2ccc(-n3cc(-c4ccccc4)nn3)cc2cc1Cc1ccccc1)N1CCCCC1 (stereo not given)	81%	–
COc1ccc(-c2ccn(CC(O)c3cc(F)ccc3Oc3nc4ccc([N+](=O)[O-])cc4cc3Cc3ccccc3)n2)cc1 (stereo not given)	5%	–
COc1ccc(NC(=S)Nc2ccc3nc(Oc4ccc(F)cc4C(C)O)c(Cc4ccccc4)cc3c2)cc1 (stereo not given)	27%	–
